Measurements published in PubChem BioAssay AID463204 (Broad Institute, 2010).
The source made the active and inactive calls.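 Rule for the calls: active = AC50 no more than ten times the top concentration tested, that is within one log above it; inconclusive = flat curve fit with activity between 30% and 70%, or invalid poor fit; inactive = AC50 beyond ten times the top tested dose.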

System: S. cerevisiae Mot1-301 ts growth rescue, BacTiter-Glo ATP luminescence
Assay: growth rescue of Mot1-301 ts yeast, confirmation, SUMOylation pathway inhibitor project, whole organism, S. cerevisiae, Mot1-301 ts mutant, luminescence, dose retest (AID 463204);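 note: growth at restrictive 38.5 degrees C of Mot1-301 OY566 strain; actives raise luminescence by restoring growth of the ts mutant at high temperature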

Compound	AC50
CSc1ncccc1C(=O)NC1CCCc2c1cnn2-c1ccc(C)c(C)c1 (configuration not stated)	> 42 µM (inactive)
Cc1ccc2nc(SCC(=O)Nc3cccc(S(N)(=O)=O)c3)[nH]c2c1	> 42 µM (inactive)
CC(C)c1nc2n[nH]c(N)c2c2c1CCC2	> 42 µM (inactive)
Cc1c(NC(=O)c2ccc(N(C)S(C)(=O)=O)cc2)c(=O)n(-c2ccccc2)n1C	> 42 µM (inactive)
CC(Oc1ccc([N+](=O)[O-])cc1)C(=O)NCCCN1CCOCC1 (configuration not stated)	> 42 µM (inactive)
CCCC(=O)Oc1c(S(=O)(=O)c2ccc(C)cc2)c(C)nn1C(C)(C)C	> 42 µM (inactive)
C/C=C/C(=O)OCC(=O)Nc1nc2ccc(C)cc2s1	> 42 µM (inactive)
O=S(=O)(NCc1ccccc1)c1ccc(S(=O)(=O)N(Cc2ccccn2)Cc2ccco2)cc1	> 42 µM (inactive)
CCc1nccn1S(=O)(=O)c1cc(OC)ccc1OC	> 42 µM (inactive)
CCN(C(=O)Cn1nc(C)c([N+](=O)[O-])c1C)c1c(N)n(Cc2ccccc2)c(=O)[nH]c1=O	> 42 µM (inactive)
O=C1NC(Cc2c[nH]c3ccccc23)C(=O)N1Cc1ccc(CN2C(=O)NC(Cc3c[nH]c4ccccc34)C2=O)cc1 (configuration not stated)	> 42 µM (inactive)
CC1CCCCN1C(=O)C(Cc1ccccc1)N1C(=O)C2CCCCC2C1=O (configuration not stated)	32.5 µM
COc1cc2cc(C)c3nnc(SCC(=O)Nc4cc(C)on4)n3c2cc1OC	> 42 µM (inactive)
COc1ccc2c(c1)[C@H]1[C@H](CO2)[C@H](c2ccccc2)[C@]2(C)C(=O)Nc3ccc(Br)cc3C(=O)N12	1.17 µM
COc1cc2c(cc1OC)CN(S(=O)(=O)c1cccc(F)c1)CC2	> 42 µM (inactive)
Cn1cnnc1-c1cccc(NS(=O)(=O)c2ccc(N3CCCC3=O)cc2)c1	> 42 µM (inactive)
CCN(CCn1cccn1)C(=O)C1CCC(=O)N(CCc2cccc(F)c2)C1 (configuration not stated)	> 42 µM (inactive)
Cn1c(CSc2nc3ccccc3s2)nnc1SCC(=O)NCCN1CCOCC1	> 42 µM (inactive)
COCCn1c(-c2ccc(Cl)cc2)cnc1SCC(=O)NCCc1ccc(OC)c(OC)c1	> 42 µM (inactive)

Compound	AC50
N#C/C(=C\c1ccc(O)c(O)c1)C(=O)Nc1ccccc1	> 42 µM (inactive)
COCCCn1c(=O)c2ccccc2n(Cc2ccccc2C)c1=O	> 42 µM (inactive)
Cc1ccc(S(=O)(=O)NCC(=O)OCC(=O)c2ccc(Br)s2)cc1	> 42 µM (inactive)
Cc1cccc(N(C(=O)c2ccc(CN3CCOCC3)o2)C(C(=O)NC2CCCCC2)c2ccc(F)cc2)c1 (configuration not stated)	> 42 µM (inactive)
C/C=C(/C)C(=O)OC1c2c(ccc3ccc(=O)oc23)OC(C)(C)C1OC(=O)/C(C)=C\C (configuration not stated)	> 42 µM (inactive)
CC1(OC(=O)CCc2ccccc2)C(=O)C=C2C=C(c3ccc(C#N)cc3)N(C3CCCC3)C=C2C1=O (configuration not stated)	> 42 µM (inactive)
COC(=O)c1ccc(Cl)c(NC(=O)CN(c2ccc(OC)c(OC)c2)S(C)(=O)=O)c1	> 42 µM (inactive)
CCCCn1c2c(c(=O)n(C)c1=O)C(c1ccc(OC)cc1)N1CCCCCC1=N2 (configuration not stated)	> 42 µM (inactive)
COc1ccc2c(c1)OC[C@H]1[C@H]2N2C(=O)c3cc(C)ccc3NC(=O)[C@@]2(C)[C@H]1c1ccccc1	1.39 µM
CN1CCCC(n2nc(Cc3ccc(Cl)cc3)c3ccccc3c2=O)CC1 (configuration not stated)	> 42 µM (inactive)
CCNc1nc(NCC)nc(SCCOC(=O)Nc2ccccc2)n1	> 42 µM (inactive)
CCc1ccc2[nH]c(=O)c(C(c3nnnn3Cc3ccccc3)N3CCOCC3)cc2c1 (configuration not stated)	> 42 µM (inactive)
CCOC(=O)N1CCN(C(=O)c2ccc3ccccc3c2)CC1	> 42 µM (inactive)
COc1ccc(CNS(=O)(=O)c2ccc3c(c2)CCN3C(=O)C2CCC2)cc1	> 42 µM (inactive)
CCCN(CCC)C(=O)CSc1ncccc1C(=O)O	> 42 µM (inactive)
CCN1CCN(CC(=O)Nc2cccc(C)c2C)C(=O)C1=O	> 42 µM (inactive)
CCc1c(C)nc(N2CCN(Cc3ccccc3)CC2)[nH]c1=O	> 42 µM (inactive)
COc1ccc(C)cc1NC(=S)N1CCN(c2ccccn2)CC1	> 42 µM (inactive)
